What was measured:
[1] = system: glucose uptake into isolated rabbit intestinal rings; test: Ex vivo glucose uptake into isolated rabbit intestinal rings; type: cell-based; design: concentration or dose not given beside the values; settings: Table 14
Experimental: For the ex vivo assay, ^33P uptake into isolated rabbit intestinal rings was measured using a modification of the method described by Crane and Mandelstam [Robert K. Crane and Paul Mandelstam “The active transport of sugars by various preparations of hamster intestine” Biochim. Biophys. Acta 45: 460-476, 1960; the contents of which are incorporated herein by reference]. Male New Zealand rabbits 2-3 kg in weight were aeuthinized by an i.v. injection of Fatal Pluse®. A midline laparotomy was performed and the duodenum from the pyloric junction to the ligament of Trietz isolated and excised. Segments of bowel were everted, cut into 2-4 mm ring-like pieces and placed into a modified Hepes-Buffered Ringer's solution in which Na^+ had been iso-osmotically replaced with N-methyl-D-glucamine. […] […] Tissues were then solublized by digesting them in a 5 ml volume of Solvable® tissue solubilizer overnight at 50° C. and ^33P levels determined by scintillation counting. Sodium-dependent uptake of ^33P was calculated by determining the difference in uptake between rings incubated in the presence and absence of Na^+ in the Hepes-Buffered Ringer's solution. Results are reported as the percentage inhibition of phosphate and glucose uptake, respectively.

[2] = system: sodium-dependent phosphate uptake into isolated rabbit intestinal rings; test: Ex vivo 33P uptake into isolated rabbit intestinal rings; type: cell-based; design: concentration or dose not given beside the values; settings: Table 14, 15-minute incubation
Experimental: For the ex vivo assay, ^33P uptake into isolated rabbit intestinal rings was measured using a modification of the method described by Crane and Mandelstam [Robert K. Crane and Paul Mandelstam “The active transport of sugars by various preparations of hamster intestine” Biochim. Biophys. Acta 45: 460-476, 1960; the contents of which are incorporated herein by reference]. Male New Zealand rabbits 2-3 kg in weight were aeuthinized by an i.v. injection of Fatal Pluse®. A midline laparotomy was performed and the duodenum from the pyloric junction to the ligament of Trietz isolated and excised. Segments of bowel were everted, cut into 2-4 mm ring-like pieces and placed into a modified Hepes-Buffered Ringer's solution in which Na^+ had been iso-osmotically replaced with N-methyl-D-glucamine. To measure phosphate uptake, six rings were incubated in a 50 ml conical tube containing a 10 ml volume of Ringer's solution, with or without Na^+, bubbled with 100% O2 and maintained at 37° C. 0.5 uCi/ml ^33P was then incubated with the rings for a 15-minute period, the tissue harvested, rinsed, blotted dry and weighed. Tissues were then solublized by digesting them in a 5 ml volume of Solvable® tissue solubilizer overnight at 50° C. and ^33P levels determined by scintillation counting. Sodium-dependent uptake of ^33P was calculated by determining the difference in uptake between rings incubated in the presence and absence of Na^+ in the Hepes-Buffered Ringer's solution. Results are reported as the percentage inhibition of phosphate and glucose uptake, respectively.

[3] = system: glucose transport (rabbit intestinal BBMV); test: In vitro BBMV assay, glucose transport inhibiting activity; type: biochemical; settings: Table 14
Experimental: In the remaining wells, used for compound containing reactions, are placed MAX Control Buffer. The Hot Stock Plate was stored at room temperature. To each well of an appropriate 96-well filter plate was added approximately 200 μL Stop Buffer to pre-wet the filters for at least 15 minutes prior to assay. The “Compound Plate” was set-up by loading appropriate wells of a 96-well, polypropylene, V-bottom plate with compound solutions. This could be for testing inhibition at a single “screening” concentration, or to measure the potency of compounds by dose-response analysis at the appropriate concentrations. A “BBMV Plate” was set up by loading a 96-well, polypropylene, V-bottom plate with BBMVs at 0.5-2.0 mg/mL (prepared as described above). The BBMV Plate was kept on ice until just prior to the assay. The reaction was initiated by aspiration of the hot uptake buffers (19 uL), from the Hot Stock Plate, and the compound solutions (2 uL), from the Compound Plate, dispensing into an empty 96-well V-bottom plate (Assay Plate), then immediately aspirating the BBMVs (19 μL), from the BBMV Plate and dispensing into the same Assay Plate. The addition of the BBMVs to the assay plate marked the reaction start time. After 15 minutes, the reaction was quenched by addition of 200 μL of STOP buffer from a reservoir. The Stop Buffer was aspirated by vacuum from the wells, through the filters, of the pre-soaked filter plate using a filter plate manifold. The quenched reactions were aspirated and transferred to the filter plate under vacuum. The filters were washed 2 times with 200 μL STOP buffer under vacuum. The filter plate was removed, dried, and the bottom of the filter plate was sealed. To each well of the filter plate was added 50 μL of scintillant (Microscint-20). A top seal was then applied to the filter plate. The plate was incubated for approximately 20 minutes before reading for ^33P CPM on a scintillation counter (i.e., TopCount-Packard Instruments). Percent inhibition was calculated by comparing the CPM values from compound containing wells to the MAX and MIN controls on the same plate using the following formula. 1−((CPM−MIN)/(MAX−MIN)) IC50 values were calculated from non-linear regression analysis within an appropriate software package (i.e., Prism GraphPad).
The phosphate transport inhibitors indicated in Table 14 were tested in both an in vitro and an ex vivo assay to determine their activity. The in vitro assay is identical to the assay described in Example 66, with the exception that the glucose transport inhibiting activity of the compounds was also measured. Results are reported as the IC50 value for the various types of inhibition. A preferred compound will have high phosphate transport inhibiting activity, but little or no glucose transport inhibiting activity.

SMILES	% Glucose Transport Inhibition [1]	% Phosphate Transport Inhibition [2]	IC50 [3]
COc1ccc(F)cc1CNC(=O)c1cc(Br)ccc1NS(=O)(=O)c1ccc(OC(F)(F)F)cc1 [Example 78, 5-Bromo-N-(5-fluoro-2-methoxy-benzyl)-2-(4-trifluoromethoxy-benzenesulfonylamino)-benzamide]	4%	45%	100 µM
O=C(NCc1ccc(OC(F)(F)F)cc1O)c1cc(Br)ccc1NS(=O)(=O)c1ccc(OC(F)(F)F)cc1 [Example 75, 5-Bromo-N-(2-hydroxy-4-trifluoromethoxy-benzyl)-2-(4-trifluoromethoxy-benzenesulfonylamino)-benzamide]	0%	56%	80 µM
O=C(Nc1cccc(C(F)(F)F)c1)Nc1cccc(C(F)(F)F)c1 [Example 82, 1,3Bis(3-Trifluoromethylphenyl)urea]	26%	25%	54 µM
Cn1nc(C(C)(C)C)cc1C(=O)Nc1ccc(C(F)(F)F)cc1 [Example 84, 5-tert-Butyl-2-methyl-2H-pyrazole-3-carboxylic acid (4-trifluoromethyl-phenyl)-amide]	21%	41%	99 µM
O=C(Nc1cc(C(F)(F)F)cc(C(F)(F)F)c1)NC1CCCCC1 [Example 83, 1-Cyclohexyl-3-(3,5-Bistrifluoromethyl-phenyl)-urea]	0%	76%	82 µM
O=C(Nc1cccc(C(F)(F)F)c1)Nc1ccc(F)c([N+](=O)[O-])c1 [Example 86, 1-(4-Fluoro-3-nitro-phenyl)-3-(3-trifluoromethyl-phenyl)-urea]	4%	30%	34 µM
Cl.N=C(Nc1cc(C(F)(F)F)cc(C(F)(F)F)c1)Nc1cc(C(F)(F)F)cc(C(F)(F)F)c1 [Example 88, N,N′-Bis-(3,5-bis-trifluoromethyl-phenyl)-guanidine Hydrochloride]	0%	60%	63 µM
COc1ccccc1CNC(=O)c1cc(Br)ccc1NS(=O)(=O)c1ccc(OC(F)(F)F)cc1 [Example 70, 5-Bromo-N-(2-methoxy-benzyl)-2-(4-trifluoromethoxy-benzenesulfonylamino)-benzamide]	8%	48%	> 100 µM
O=C(NCc1ccc(F)cc1)c1cc(Br)ccc1NS(=O)(=O)c1ccc(OC(F)(F)F)cc1 [Example 71, 5-Bromo-N-(4-fluoro-benzyl)-2-(4-trifluoromethoxy-benzenesulfonylamino)-benzamide]	26%	53%	> 100 µM
Cl.N=C(Nc1ccc(Cl)c(C(F)(F)F)c1)Nc1ccc(Cl)c(C(F)(F)F)c1 [Example 89, N,N′-Bis-(4-chloro-3-trifluoromethyl-phenyl)-guanidine Hydrochloride]	0%	44%	88 µM
O=C(Nc1cccc(C(F)(F)F)c1)Nc1cc(Cl)ccc1Cl [Example 85, 1-(2,5-Dichloro-phenyl)-3-(3-trifluoromethyl-phenyl)-urea]	0%	58%	> 100 µM
Cl.N=C(Nc1ccc(C(F)(F)F)c(C(F)(F)F)c1)Nc1ccc(C(F)(F)F)c(C(F)(F)F)c1 [Example 90, N,N′-Bis-(3,4-bis-trifluoromethyl-phenyl)-guanidine Hydrochloride]	0%	93%	> 100 µM
Cl.N=C(Nc1ccc(Br)c(C(F)(F)F)c1)Nc1ccc(Br)c(C(F)(F)F)c1 [Example 87, N,N′-Bis-(4-bromo-3-trifluoromethyl-phenyl)-guanidine Hydrochloride]	3%	71%	94 µM

Reference: patent US20070021509A1, “Phosphate transport inhibitors” (priority 2001, published 2007)
